Reference: US20140357713A1, “ANTIMICROBIAL COMPOUNDS AND METHODS OF USE” (NexMed Holdings, Inc., priority 2012, published 2014)
Where a name gives a salt, the structure may show the parent alone. Read-outs that look alike come from different tables or passages of the source.

What was measured:
[1] = tested on: Aspergillus niger (CMCC 98003); experiment: Minimum inhibitory concentration (MIC) assay, Example 33; type: cell-based; conditions: for MIC: Aspergillus niger; for MIC Aspergillus niger: n = 2
Summary of the method: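 Broth microdilution MIC per CLSI guidelines in RPMI 1640 with serial 2-fold compound dilutions. Spore suspension from sporulating colonies adjusted to OD530 0.09-0.13, diluted 1:50 as 2× inoculum and added 1:2 to drug wells; plates incubated at 35 °C and MIC read per CLSI.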

[2] = Solubility (Sol., Table 1); type: physicochemical
[3] = tested on: Escherichia coli (ATCC 25922); experiment: Minimum inhibitory concentration (MIC) assay, Example 33; type: cell-based; conditions: Escherichia coli
Summary of the method: (§1)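 Colonies re-streaked twice on agar (20 to 24 hrs, 35±2° C) supplied inoculum adjusted to 0.5 McFarland, diluted 1:100 into medium, then added 1:2 to CAMHB wells holding 2-fold compound dilutions. After incubation at 35° C, MIC was recorded per CLSI.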

[4] = tested on: Pseudomonas aeruginosa (ATCC 27853); experiment: as above; type: cell-based; conditions: Pseudomonas aeruginosa
Summary of the method: as §1

[5] = tested on: Staphulococcus aureus (ATCC 29213); experiment: as above; type: cell-based, Staphylococcus aureus; conditions: Staphylococcus aureus
Summary of the method: as §1

[6] = tested on: Candida albicans (ATCC 90029); experiment: as above; type: cell-based; conditions: Candida albicans
Summary of the method: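 Broth microdilution per CLSI guidelines in RPMI 1640; inoculum set to OD530 0.08–0.13, diluted 1:50 then 1:20 to 2× strength and mixed 1:2 with 2-fold serial compound dilutions. Incubated at 35° C; MIC read per CLSI.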

[7] = pH (Table 1); type: physicochemical
[8] = tested on: Candida albicans (ATCC 90029); experiment: Time kill study, Example 33 (0 to 5 min); type: cell-based; conditions: 1×MIC
Summary of the method: (§2)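 Viable counts (Log10 CFU/mL) were recorded at each time point. Equal volumes of strain suspension and compound solution were combined following CLSI guidelines, then aliquots were diluted, plated on agar and incubated 24 to 48 hrs before colony counting.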

[9] = tested on: Escherichia coli (ATCC 25922); experiment: Time kill study, Example 33 (0 to 5 min); type: cell-based; conditions: 1×MIC
Summary of the method: as §2

[10] = tested on: Pseudomonas aeruginosa (ATCC 27853); experiment: Time kill study, Example 33 (0 to 5 min); type: cell-based; conditions: 1×MIC
Summary of the method: as §2

[11] = tested on: Staphylococcus aureus (ATCC 29213); experiment: Time kill study, Example 33 (0 to 5 min); type: cell-based; conditions: 1×MIC
Summary of the method: as §2

[12] = CMCC98003, read-out: MIC Aspergillus niger
[13] = ATCC25922, Table 19 summary of Example 33 and Example 35
[14] = ATCC25922, read-out: MIC E. coli, n = 1
[15] = ATCC25922, read-out: MIC E. coli, n = 2
[16] = ATCC27853, read-out: MIC P. aeruginosa, n = 1
[17] = ATCC27853, read-out: MIC P. aeruginosa, n = 2
[18] = ATCC29213, read-out: MIC S. aureus, n = 1
[19] = ATCC29213, read-out: MIC S. aureus, n = 2
[20] = ATCC90029, read-out: MIC Candida albicans, n = 1
[21] = ATCC90029, read-out: MIC Candida albicans, n = 2

Row | SMILES | MIC ([1]; CMCC98003) [µg/mL] | MIC [1, 12] [µg/mL] | MIC Aspergillus niger [1] [µg/mL] | Sol. [2] [%] | MIC [3, 13] [µg/mL] | MIC [3, 14] [µg/mL] | MIC [3, 15] [µg/mL] | MIC ([4]; ATCC27853, Table 19 summary) [µg/mL] | MIC [4, 16] [µg/mL] | MIC [4, 17] [µg/mL] | MIC ([5]; ATCC29213, Table 19 summary) [µg/mL] | MIC [5, 18] [µg/mL] | MIC [5, 19] [µg/mL] | MIC ([6]; ATCC90029, Table 19 summary) [µg/mL] | MIC [6, 20] [µg/mL] | MIC [6, 21] [µg/mL] | pH [7] | Viable counts, Escherichia coli time kill study ([9]; 0.5 min) [Log10 CFU/mL] | Viable counts, Escherichia coli time kill study ([9]; 1 min) [Log10 CFU/mL] | Viable counts, Escherichia coli time kill study ([9]; 5 min) [Log10 CFU/mL] | further results
1 | CCCCCCCCCCCCOC(=O)C(Cc1ccccc1)N(C)C (stereo not drawn) [Nex-54, Dodecyl 2-(dimethylamino)-3-phenylpropanoate hydrochloride] | 12500 | 12500 | 12500 | 58 | ≥ 12500 | > 12500 | 12500 | ≥ 12500 | > 12500 | 12500 | ≥ 12500 | > 12500 | 12500 | 6250 | 6250 | 6250 | 2.16 |  |  |  | Viable counts, Candida albicans time kill study ([8]; 0.5 min): 5.56 Log10 CFU/mL; Viable counts, Candida albicans time kill study ([8]; 1 min): 5.52 Log10 CFU/mL; Viable counts, Candida albicans time kill study ([8]; 5 min): 5.48 Log10 CFU/mL; Viable counts, Candida albicans time kill study ([8]; time 0): 5.56 Log10 CFU/mL
2 | CCCCCCCCCCCCOC(=O)C(C)(C)N(C)C [Nex-58, Dodecyl 2-(dimethylamino)-2-methylpropanoate hydrochloride] | > 12500 | > 12500 | >12500 | 51 | 3130 | 3130 | 3130 | 6250 | 6250 | 6250 |  | 3130 | 1560 | > 12500 | > 12500 | > 12500 | 2.27 | <4.0 | <3.70 | <3.52 | Viable counts, Escherichia coli time kill study ([9]; time 0): 5.91 Log10 CFU/mL; Viable counts, Pseudomonas aeruginosa time kill study ([10]; 0.5 min): <4.0 Log10 CFU/mL; Viable counts, Pseudomonas aeruginosa time kill study ([10]; 1 min): <3.70 Log10 CFU/mL; Viable counts, Pseudomonas aeruginosa time kill study ([10]; 5 min): <3.52 Log10 CFU/mL; Viable counts, Pseudomonas aeruginosa time kill study ([10]; time 0): 5.54 Log10 CFU/mL; Viable counts, Staphylococcus aureus time kill study ([11]; 0.5 min): 6.15 Log10 CFU/mL; Viable counts, Staphylococcus aureus time kill study ([11]; 1 min): 6.11 Log10 CFU/mL; Viable counts, Staphylococcus aureus time kill study ([11]; 5 min): 5.81 Log10 CFU/mL; Viable counts, Staphylococcus aureus time kill study ([11]; time 0): 6.26 Log10 CFU/mL
3 | CCCCCCCCCCCC(C)OC(=O)C(C)N(C)C (stereo not drawn) [Nex-64, Tridecan-2-yl 2-(dimethylamino)propanoate hydrochloride] | > 12500 | > 12500 | >12500 | 44 | 3130 | 3130 | 3130 | 6250 | 6250 | 6250 | 3130 | 3130 | 3130 | > 12500 | > 12500 | > 12500 | 1.95 | 5.73 | 5.7 | <3.52 | Viable counts, Escherichia coli time kill study ([9]; time 0): 5.71 Log10 CFU/mL; Viable counts, Pseudomonas aeruginosa time kill study ([10]; 0.5 min): 4 Log10 CFU/mL; Viable counts, Pseudomonas aeruginosa time kill study ([10]; 1 min): <3.70 Log10 CFU/mL; Viable counts, Pseudomonas aeruginosa time kill study ([10]; 5 min): <3.52 Log10 CFU/mL; Viable counts, Pseudomonas aeruginosa time kill study ([10]; time 0): 5.45 Log10 CFU/mL; Viable counts, Staphylococcus aureus time kill study ([11]; 0.5 min): 6.41 Log10 CFU/mL; Viable counts, Staphylococcus aureus time kill study ([11]; 1 min): 6.38 Log10 CFU/mL; Viable counts, Staphylococcus aureus time kill study ([11]; 5 min): 6.36 Log10 CFU/mL; Viable counts, Staphylococcus aureus time kill study ([11]; time 0): 6.34 Log10 CFU/mL
